Consider 10 compounds from paper PMC9573605, “Exploring Nitric Oxide (NO)-Releasing Celecoxib Derivatives as Modulators of Radioresponse in Pheochromocytoma Cells” (Molecules, 2022).

The structures appear in SMILES notation. Where a name gives a salt, the structure may show the parent alone. Read-outs that look alike come from different tables or passages of the source.

Series [1] has as its target T1, purified ovine COX-1 (Ovis aries, UniProt P05979).
T1 construct: purchased Cayman Chemical 700100
T1 sequence (P05979 25-600): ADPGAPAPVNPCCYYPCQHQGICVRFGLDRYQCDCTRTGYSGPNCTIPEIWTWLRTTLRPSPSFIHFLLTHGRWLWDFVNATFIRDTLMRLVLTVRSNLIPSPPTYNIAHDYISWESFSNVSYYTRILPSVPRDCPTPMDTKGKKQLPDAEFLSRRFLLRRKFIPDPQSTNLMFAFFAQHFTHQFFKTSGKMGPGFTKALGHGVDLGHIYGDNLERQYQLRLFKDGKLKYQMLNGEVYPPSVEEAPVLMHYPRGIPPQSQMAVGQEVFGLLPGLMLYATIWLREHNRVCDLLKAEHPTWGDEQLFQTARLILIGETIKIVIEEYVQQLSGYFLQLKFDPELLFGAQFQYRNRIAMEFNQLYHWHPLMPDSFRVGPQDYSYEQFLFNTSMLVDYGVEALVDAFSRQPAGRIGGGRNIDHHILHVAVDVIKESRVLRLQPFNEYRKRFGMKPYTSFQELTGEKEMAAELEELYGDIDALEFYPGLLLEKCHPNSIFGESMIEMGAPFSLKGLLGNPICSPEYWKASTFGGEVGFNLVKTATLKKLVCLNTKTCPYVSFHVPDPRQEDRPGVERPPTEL
Briefly: COX Fluorescent Inhibitor Screening Assay, COX-1. To be noted: 0.1 nM to 100 µM in duplicate. Format: biochemical. How it is done: (§1) COX inhibition (Table 1) was evaluated in vitro using purified ovine COX-1 and recombinant human COX-2 enzyme in a commercially available “COX Fluorescent Inhibitor Screening Assay KIT” (item no. 700100, Cayman Chemical, Ann Arbor, MI, USA). Celecoxib served as a reference and inhibition data concerning 4a, 4e, 5a and 5e were previously reported by us and is herein discussed for comparison.
(§2) COX inhibition activity against ovine COX-1 and human COX-2 was determined using the fluorescence-based COX assay “COX Fluorescent Inhibitor Screening Assay Kit” (catalog number 700100; Cayman Chemical, Ann Arbor, MI, USA) according to the manufacturer’s instructions. Compounds 6a–d were screened at a concentration of 100 µM, all others were assayed in a concentration range of 0.1 nM to 100 μM in duplicate.

The nature of series [2]: Fluorometric NO release assay (Griess assay). It is filed as physicochemical. The settings on record: 24 h, 37 °C, relative to initial molar amount of compound; for thiol-dependent NO release: 2.5 mM cysteine; for spontaneous NO release: absence of cysteine. How it is done:
The nitric oxide releasing properties of the nitroester-derivatives 5a–d, 5f, and 6a–d were evaluated using a fluorometric Griess assay in the presence and absence of cysteine to determine thiol-dependent and spontaneous release of nitric oxide (Figure 3).
Nitric oxide release of compounds within 24 h at 37 °C was measured using the fluorometric nitric oxide microplate assay kit ab65327 (Abcam, Cambridge, UK). For measurement of spontaneous release, 1.8 nmol of compounds were incubated in 75 µL Dulbecco’s PBS containing 0.05% v/v residual DMSO and 2.5 mM DTPA (pH = 7.1) for 24 h at 37 °C. Thiol-dependent release was measured accordingly in presence of 2.5 mM cysteine. Two series of nitrate standards were prepared (0.2−1 nmol) in 75 µL incubation buffer, in presence or absence of cysteine, respectively. According to the manufacturer’s instructions, all nitrate content in samples and standards was enzymatically converted into nitrite through incubation with nitrate reductase for 2 h at room temperature, and the resulting nitrite content (total nitric oxide) was determined through reaction with 2,3-diaminonaphthalene followed by measurement of fluorescence intensity at λex/em = 360/450 nm using a microplate reader. Nitrite content in samples was calculated from linear regression of standards and expressed as relative nitric oxide release (%) normalized to the initial molar amount of compound. NONOate served as positive control.
Figure 3 Spontaneous and thiol-dependent NO^• release from NO-COXIBs; measured using fluorometric Griess assay (n = 2); relative release indicates the percentage of soluble nitrogen species (nitrate + nitrite) detected in the incubation buffer after 24 h compared to the initial molar amount of compounds; NO^• release of NONOate (positive control) exceeded the maximum detection limit; data presented as mean ± range.
On the technique in general: Nitrite, measured by Griess reagent, commonly stands in for NO production.

Series [3] can be described thus: Lipophilicity logD7.4 by HPLC method. Format: physicochemical. The settings on record: HPLC retention on ODP-50 4B column (Shodex Asahipak), phosphate buffer pH 7.4. How it is done:
The lipophilicity of all synthesized compounds was determined as logD7.4, HPLC value by an HPLC method originally described by Donovan and Pescatore.
The logD7.4HPLC value was determined as previously reported by us utilizing an HPLC method originally described by Donovan and Pescatore.

For series [4], the target named is T2, recombinant human COX-2 (Homo sapiens, UniProt P35354).
T2 construct: purchased Cayman Chemical 700100
T2 sequence (P35354 18-604): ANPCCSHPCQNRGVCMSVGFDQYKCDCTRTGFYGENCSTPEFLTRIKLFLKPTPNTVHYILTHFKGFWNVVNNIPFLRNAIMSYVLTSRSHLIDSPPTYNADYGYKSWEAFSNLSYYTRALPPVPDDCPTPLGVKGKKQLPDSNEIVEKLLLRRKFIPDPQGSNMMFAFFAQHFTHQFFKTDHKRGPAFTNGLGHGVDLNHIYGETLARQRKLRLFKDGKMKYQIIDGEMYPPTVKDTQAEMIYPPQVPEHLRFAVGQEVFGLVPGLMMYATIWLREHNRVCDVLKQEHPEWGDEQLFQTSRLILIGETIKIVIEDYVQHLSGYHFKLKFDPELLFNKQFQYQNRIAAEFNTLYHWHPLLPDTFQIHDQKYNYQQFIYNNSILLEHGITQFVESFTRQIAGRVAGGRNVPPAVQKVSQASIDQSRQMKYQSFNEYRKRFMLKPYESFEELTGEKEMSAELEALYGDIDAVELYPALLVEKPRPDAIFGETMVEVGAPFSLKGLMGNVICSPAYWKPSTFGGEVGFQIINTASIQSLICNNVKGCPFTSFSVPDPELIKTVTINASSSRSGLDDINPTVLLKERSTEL
Briefly: COX Fluorescent Inhibitor Screening Assay, COX-2. It is filed as biochemical. The settings on record: for SI: COX-1 vs COX-2 selectivity index; for IC50: human COX-2, 0.1 nM to 100 µM in duplicate. The procedure:
as §1, §2

The target in series [5] is T2, recombinant human COX-2. The arrangement: method as in PMID 26081289. The settings on record: cited from earlier work.
The target in series [6] is T1, purified ovine COX-1. The arrangement: method as in PMID 26081289. The settings on record: previously reported ref 49; cited from earlier work.
Series [7] can be described thus: Conversion in NO-assay buffer followed by UPLC. The settings on record: after 70 h, 37 °C, presence of cysteine. It is filed as physicochemical. The procedure:
The time-dependent degradation behavior of compounds 4f, 5a–f, and 6a–d as well as celecoxib was followed by UPLC analysis over a time course of 8 days (Figure 4). For that, compounds were incubated at 37 °C in the presence or absence of cysteine in the assay buffer used for the Griess assay. Samples were withdrawn at distinct time points (1, 5, 23, 47, 70, and 191 h), diluted into a mixture of acetonitrile/water, and analyzed.
The time-dependent conversion of NO-COXIBs 5a–f and 6a–d as well as reference compounds 4f and celecoxib in the presence or absence of cysteine in assay buffer was investigated by following the degradation of intact compound and identification of selected degradation products by UPLC. For that, samples were incubated at 37 °C in the assay buffer in the presence or absence of cysteine and at the indicated time point; 5 µL assay buffer of each sample was withdrawn and diluted with 45 µL MeCN/water (50/50 v/v). The samples were thoroughly vortexed and then subjected to UPLC analysis. All samples of one time point were analyzed within a total analysis time of approximately 2.5 h. Conversion was monitored at 254 nm using the following UPLC system: column Aquity UPLC® HSS C18 column (Waters Corporation, Milford, MA, USA; 100 × 2.1 mm, 1.8 µm, 130 Å), UPLC H-Class (Waters Corporation, Milford, MA, USA): quaternary gradient pump QSM, autosampler FTN, column heater CHA, and diode array detector PDAeλ, γ detector Gabi Star (Raytest Isotopenmeßgeräte GmbH, Straubenhardt, Germany), flow rate 0.4 mL/min, eluent: (A): 0.1% acetic acid in MeCN/MeOH 1/1/(B): 0.1% acetic acid in H2O; gradient: t0min 45/55–t0.5min 45/55–t5.5min 95/5–t7.0min 95/5–t7.2min 45/55–t8.5min 45/55). For the identification of degradation products, samples taken after 24 h were additionally subjected to HPLC-HRMS analysis using HPLC system 6. In brief, the NO-COXIBs were converted to the respective hydroxymethyl-substituted compounds and in the presence of cysteine additionally to the cysteine adduct, which could be identified by the respective Δm/z shifts. A detailed comparison of calculated and found m/z-signals is given in Supplementary Material Table S1, and copies of HPLC-HRMS chromatograms and selected spectra are given in Supplementary Material Figures S56–S66.

Regarding `COc1ccc(-c2c(Cl)c(CO[N+](=O)[O-])nn2-c2ccc(S(C)(=O)=O)cc2)cc1` (as salt: nitrate) [5d, {4-Chloro-5-(4-methoxyphenyl)-1-[4-(methylsulfonyl)phenyl]-1H-pyrazol-3-yl}methyl nitrate], the melting point is 141 to 143 °C.

`COc1ccc(-c2c(Cl)c(CO[N+](=O)[O-])nn2-c2ccc(S(N)(=O)=O)cc2)cc1` [5b, [4-Chloro-5-(4-methoxyphenyl)-1-(4-sulfamoylphenyl)-1H-pyrazol-3-yl]methyl nitrate]: in series [1], the IC50 worked out at 2570 nM and the “IC50 (COX-1)” value is listed as “considerable COX-1 inhibition potency”. For the same compound, in series [2], the “thiol-dependent NO release” value is recorded as 20% and the “spontaneous NO release” value was “no detectable”. The same compound came in with a chromatographic logD in series [3] of 3.67. Moreover, in series [4], the SI was determined as 5.9 and the IC50 amounted to 434 nM.

`Cc1ccc(-c2cc(CCl)nn2-c2ccc(S(N)(=O)=O)cc2)cc1` [4e, 4-[3-(Chloromethyl)-5-(p-tolyl)-1H-pyrazol-1-yl]benzenesulfonamide]: in series [5] (COX-1 vs COX-2 selectivity index, COX inhibition previously reported ref 49), the SI is over 78. Also, the IC50 in series [5] (human COX-2, previously reported ref 49) is 1270 nM; in series [6], over 100000 nM. In series [3], the chromatographic logD turned out to be 3.14.

In series [1], `Cc1ccc(-c2c(Cl)c(CCl)nn2-c2ccc(S(C)(=O)=O)cc2)cc1` [4c, 4-Chloro-3-(chloromethyl)-1-[4-(methylsulfonyl)phenyl]-5-(p-tolyl)-1H-pyrazole] had an IC50 of over 100000 nM. This compound had a chromatographic logD in series [3] of 3.9. In series [4], the SI is over 138 and the IC50 turned out to be 720 nM.

Compound `CCC(=O)NS(=O)(=O)c1ccc(-n2nc(CO[N+](=O)[O-])cc2-c2ccc(C)cc2)cc1` (as salt: nitrate) [6c, {1-[4-(N-Propionylsulfamoyl)phenyl]-5-(p-tolyl)-1H-pyrazol-3-yl}methyl nitrate] returned a melting point of 72 to 74 °C.

In the case of `COc1ccc(-c2c(Cl)c(CO[N+](=O)[O-])nn2-c2ccc(S(N)(=O)=O)cc2)cc1` (as salt: nitrate) [5b, [4-Chloro-5-(4-methoxyphenyl)-1-(4-sulfamoylphenyl)-1H-pyrazol-3-yl]methyl nitrate], the melting point is 173 to 174 °C.

In turn, `COc1ccc(-c2c(Cl)c(CCl)nn2-c2ccc(S(N)(=O)=O)cc2)cc1` [4b, 4-[4-Chloro-3-(chloromethyl)-5-(4-methoxyphenyl)-1H-pyrazol-1-yl]benzenesulfonamide] came in with a melting point of 238 to 240 °C. For the same compound, half-maximal inhibition in series [1] (IC50) required 297 nM. In addition, the chromatographic logD in series [3] came to 3.53. In addition, in series [4], the SI was determined as 2.3 and the IC50 stood at 127 nM.

`COc1ccc(-c2cc(CCl)nn2-c2ccc(S(N)(=O)=O)cc2)cc1` [4f, 4-[3-(Chloromethyl)-5-(4-methoxyphenyl)-1H-pyrazol-1-yl]benzenesulfonamide] displayed a melting point of 169 to 172 °C. The compound further came in with an IC50 in series [1] of over 100000 nM. Moreover, in series [2], the “thiol-dependent NO release” value is listed as “not detectable” and the “spontaneous NO release” value is listed as “not detectable”. Also, the chromatographic logD in series [3] was found to be 3.06. In series [4], the SI is listed as over 270 and the IC50 was determined as 370 nM. Moreover, in series [7], the intact compound entry is given as “quantitatively consumed”.

The compound `COc1ccc(-c2c(Cl)c(CCl)nn2-c2ccc(S(C)(=O)=O)cc2)cc1` [4d, 4-Chloro-3-(chloromethyl)-5-(4-methoxyphenyl)-1-[4-(methylsulfonyl)phenyl]-1H-pyrazole] had a melting point of 234 to 236 °C. In series [1], this compound returned an IC50 of over 100000 nM. The compound further had a chromatographic logD in series [3] of 3.84. In addition, in series [4], the SI is given as over 208 and the IC50 was found to be 480 nM.

`Cc1ccc(-c2c(Cl)c(CO[N+](=O)[O-])nn2-c2ccc(S(C)(=O)=O)cc2)cc1` (as salt: nitrate) [5c, {4-Chloro-1-[4-(methylsulfonyl)phenyl]-5-(p-tolyl)-1H-pyrazol-3-yl}methyl nitrate] came in with a melting point of 113 to 115 °C.

The melting point is the temperature, or range, at which the solid turns liquid. For orientation: IC50 means the midpoint of a concentration-inhibition curve. A word on the chromatographic logD: it is lipophilicity estimated from chromatographic retention. Higher therefore signals a more lipophilic compound.
